# Test results published in patent US20240316051A1, “A PHARMACEUTICAL COMBINATION AND USE THEREOF” (Ascentage Pharma (Suzhou) Co., Ltd., priority 2021, published 2024).
# What was measured:
# EED (1-441)-His protein = target: T1, EED (1-441)-His protein (Homo sapiens, UniProt O75530); assay: EED-H3K27Me3 peptide competition binding assay by AlphaScreen; conditions: Table 4A, read-out: Alpha screen
# T1 construct: 20 nM EED (1-441)-His protein
# In short: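 EED(1-441)-His was preincubated 15 min with compound, then biotin-H3K27Me3(19-33) peptide added for 30 min; both were added as 20 nM solutions in 25 mM HEPES pH 8, 0.02% Tween-20, 0.5% BSA. Ni-chelate acceptor and streptavidin donor beads (10 μg/ml each final) were added for 1 h in the dark at RT. Signal read at 615 nm (680 nm excitation), normalised to controls and fitted to dose-response for IC50.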
# [1] = test system: malignant pleural mesothelioma (MPM) PDX model (FGFR1high; BAP1mut); assay: Subcutaneous malignant pleural mesothelioma (MPM) PDX model (Example 20); type: in vivo, mice; conditions: Compound 73 100 mg/kg, Compound C 50 mg/kg, each orally every other day, 76 days; alone or combined
# Experimental: (§1) A subcutaneous xenograft tumor model of human tumor immunodeficient mice was established by cell inoculation: tumor cells in logarithmic growth phase were collected, counted, resuspended in 1×PBS, and the cell suspension concentration was adjusted to 2.5-5×10^7/mL. The tumor cells were inoculated subcutaneously in the right side of immunodeficient mice with a 1 ml syringe ([…]), 5-10×10^6/0.2 mL/mouse. All animal experiments were strictly in accordance with the specifications for the use and management of experimental animals in GenePharma Co., Ltd. and Suzhou Ascentage Pharma Co., Ltd. The calculation of relevant parameters refers to the Chinese NMPA “Guidelines for Non-Clinical Research Techniques of Cytotoxic Anti-tumor Drugs”.
# (§2) Animal body weight and tumor size were measured twice weekly during the experiment. The state of the animal and the presence or absence of death were observed every day. The growth of tumor and the effects of treatment on normal behavior of animals were monitored routinely, specifically involving experimental animal activity, feeding and drinking, weight gain or loss, eyes, clothing hair and other abnormalities. The deaths and clinical symptoms observed during the experiment were recorded in the raw data. All operations for administration and measurement of mouse body weight and tumor volume were performed in a clean bench. According to the requirements of the experimental protocol, after the end of the last administration, plasma and tumor tissues were collected, weighed and photographed. The plasma and tumor samples were frozen at −80° C. for ready-to-use.
# (§3) Tumor volume (TV) is calculated as: TV=a×b^2/2, wherein a and b represent the length and width of the tumor to be measured, respectively.
# The relative tumor volume (RTV) is calculated as: RTV=Vt/V1, wherein V1 is the tumor volume at the start of grouping and administration, and Vt is the tumor volume measured on the t day after administration. […]
# Change of body weight (%)=(measured body weight-body weight at the start of grouping)/body weight at the start of grouping×100%. […]
# According to the description by Clarke R., Issues in experimental design and endpoint analysis in the study of experimental cytotoxic agents in vivo in breast cancer and other models [J]. Breast Cancer Research & Treatment, 1997, 46(2-3): 255-278, synergy analysis was evaluated using the following formula: synergy factor=((A/C)×(B/C))/(AB/C); A=RTV value of drug A alone group; B=RTV value of drug B alone group; C=RTV value of the solvent control group, and AB=RTV value of the A and B combination group. […]
# [2] = test system: H226 (BAP1mut, UHRF1high, TP53WT, CDKN2Adel, FGFRhigh) subcutaneous mesothelioma xenograft; assay: H226 subcutaneous mesothelioma xenograft model (Example 22); type: in vivo, mice; conditions: for RTV @ D 39: mean ± SEM
# Experimental: as §1, §2, §3
# (§4) The relative tumor volume (RTV) is calculated as: RTV=Vt/V1, wherein V1 is the tumor volume at the start of grouping and administration, and Vt is the tumor volume measured on the t day after administration.
# (§5) The evaluation index of anti-tumor activity is the relative tumor proliferation rate T/C (%), and the calculation formula thereof is: relative tumor proliferation rate T/C (%)=(TRTV/CRTV)×100%, TRTV is the RTV of treatment group, CRTV is the RTV of solvent control group.
# (§6) Change of body weight (%)=(measured body weight-body weight at the start of grouping)/body weight at the start of grouping×100%.
# (§7) A dose of drug is considered to be severely toxic if the body weight of mouse is reduced by more than 20% or the number of drug-related deaths exceeds 20%.
# In this experiment, H226 (BAP1mut, UHRF1high, TP53WT, CDKN2Adel, FGFRhigh) subcutaneous mesothelioma xenograft model was established to evaluate the anti-tumor effect of Compound 73 in combination with Compound C. The dosing regimen was as follows: • Compound C: 50 mg/kg, orally, every other day, for a total of 39 days; • Compound 73: 50 mg/kg, orally, once per day, for a total of 39 days; • Compound 73: 100 mg/kg, orally, once per day, for a total of 39 days.
# 22RV1 prostate xenograft = assay: Subcutaneous 22RV1 prostate xenograft model (Example 24); type: in vivo, mice
# Experimental: as §1, §2, §3, §4, §5, §6, §7
# According to the description by Clarke R., Issues in experimental design and endpoint analysis in the study of experimental cytotoxic agents in vivo in breast cancer and other models [J]. Breast Cancer Research & Treatment, 1997, 46(2-3): 255-278, synergy analysis was evaluated using the following formula: synergy factor=((A/C)×(B/C))/(AB/C); A=RTV value of drug A alone group; B=RTV value of drug B alone group; C=RTV value of the solvent control group, and AB=RTV value of the A and B combination group.
# In this experiment, subcutaneous 22RV1 prostate xenograft model was established to evaluate the anti-tumor effect of Compound 73 in combination with Compound C. The dosing regimen was as follows: • Compound C: 100 mg/kg, orally, every other day, for a total of 28 days; • Compound 73: 100 mg/kg, orally, once per day, for a total of 28 days;
# The dosing regimen of each drug in the dosing regimen for the combination is the same as the dosing regimen for the single drug, for a total of 28 days.
# [3] = Compound 73 100 mg/kg orally once per day, alone or combined with Compound C 50 mg/kg every other day
# [4] = Compound C 50 mg/kg orally every other day, Compound 73 50 mg/kg orally once per day, alone or combined
# T1 sequence (O75530 whole entry): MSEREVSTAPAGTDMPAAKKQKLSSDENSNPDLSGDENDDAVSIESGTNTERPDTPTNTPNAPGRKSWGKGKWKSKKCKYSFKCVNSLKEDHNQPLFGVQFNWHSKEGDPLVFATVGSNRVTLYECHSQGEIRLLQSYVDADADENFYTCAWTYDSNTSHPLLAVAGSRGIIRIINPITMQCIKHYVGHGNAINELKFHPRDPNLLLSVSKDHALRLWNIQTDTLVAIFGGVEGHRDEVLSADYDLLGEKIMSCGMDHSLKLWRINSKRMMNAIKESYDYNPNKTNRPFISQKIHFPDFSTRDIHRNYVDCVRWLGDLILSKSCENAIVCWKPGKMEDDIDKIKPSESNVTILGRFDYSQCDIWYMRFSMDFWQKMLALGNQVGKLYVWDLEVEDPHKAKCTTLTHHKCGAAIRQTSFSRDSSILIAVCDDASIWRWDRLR
compound,measurement,setting,value
"CC(C)N1Cc2cc(C(F)(F)F)ncc2-c2cnc(NCc3c(F)ccc4c3CCO4)n3cnc(c23)C1=O [Compound 73, 12-(((5-fluoro-2,3-dihydrobenzofuran-4-yl)methyl)amino)-4-isopropyl-7-(trifluoromethyl)-4,5-dihydro-3H-2,4,8,11,12a-pentaazabenzo[4,5]cycloocta[1,2,3-cd]inden-3-one]",IC50,EED (1-441)-His protein,0.5 nM
same,RTV @ D 76,[1],3.06
same,T/C (%) @ D 76,[1],53%
same,T/C (%) @ D 39,[2]; [3],59.73%
same,RTV @ D 39,[2]; [3],4.76 ± 0.61
same,T/C (%) @ D 39,[2]; [4],67.7%
same,RTV @ D 39,[2]; [4],5.39 ± 0.56
same,antitumor activity (in words),"[2]; single agents, 39 days (FIG. 10)",moderate antitumor activity
same,RTV@ D 26,"22RV1 prostate xenograft; 22RV1 xenograft, day 26, Compound 73 100 mg/kg orally once per day, Compound C 50 mg/kg (table) orally every other day",7.91 ± 0.74
same,T/C(%) @ D 26,"22RV1 prostate xenograft; 22RV1 xenograft, day 26, Compound 73 100 mg/kg, Compound C 50 mg/kg (table)",49.89%
same,RTV@ D 29,"22RV1 prostate xenograft; 22RV1 xenograft, day 29",9.28 ± 0.61
same,RTV@ D 32,"22RV1 prostate xenograft; 22RV1 xenograft, day 32",11.53 ± 0.68
same,T/C value,"22RV1 prostate xenograft; day 26, Compound C 100 mg/kg orally every other day, Compound 73 100 mg/kg orally once per day, alone or combined",49.89%
